pIC50: −log10 of the molar value.

One data set concerns IMR32 cells. Briefly: IMR32 cytotoxicity assay. As to conditions: Homo sapiens, IMR-32, 72 h, 3 days, Cell TiterGlo. Type of data set: cell-based. The protocol: IMR32 cells were obtained from American Type Culture Collection (ATCC, CCL-127) and cultured in DMEM (Corning, 10-013-CV) supplemented with 10% fetal bovine serum (Gibco, 10438-026) and 1% penicillin-streptomycin (Gibco, 15070063). Cells were trypsinized, resuspended in growth medium, and diluted to a concentrated of 20,000 cells/mL. 1,000 cells, 50 μL of cell suspension, per well were then plated in a white 384-well plate (Corning) and incubated at 37° C., 5% CO2. After 24 hours incubation, 100 nL of test compounds in DMSO, 20-point 1:2 dilution starting from 20 μM (final concentration) in triplicate, were transferred to each well using an Agilent Bravo instrument outfitted with a pintool head. Cells were incubated at 37° C., 5% CO2 for 3 days followed by the addition of 30 μL of Cell TiterGlo (Promega; diluted 1:6 in water) to each well and luminescence values recorded using an EnVision plate reader. […]

Data set [1] concerns NCI-H226 cells. Nature of the data set: NCI-H226 proliferation assay (in house). Conditions: Homo sapiens, 120 h, 5 days, Cell TiterGlo, 20-point 1:2 dilution from 20 μM. Type of data set: cell-based. The essentials: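 Cells in RPMI 1640 + 10% FBS, 500 per well, dosed after 24 h with 20-point 1:2 dilutions from 20 μM (final), in triplicate. After 5 days at 37 °C, 5% CO2, viability read by CellTiter-Glo luminescence.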
On the technique in general: Cellular ATP, detected with luciferase, serves as a proxy for viable cell number.

Data set [2] deals with transcriptional activity of TEADs. Nature of the data set: TEAD reporter assay (MCF7 TEAD-LUC reporter cells). Type of data set: cell-based. Conditions: Homo sapiens, 24 hours, BrightGlo luminescence. Put shortly:
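MCF7 TEAD-LUC reporter cells were plated at 5,000/well and after 24 h treated with a 20-point 1:2 series from 20 μM final, in triplicate. Luciferase was read by BrightGlo luminescence after 24 h exposure at 37 °C.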
On the technique in general: In a reporter assay the amount or activity of a reporter protein is the signal.

Data set [3] has as its system NCI-H226 cells. Briefly: NCI-H226 proliferation assay (Wuxi AppTec). In kind it is cell-based. Conditions: Homo sapiens, 168 h, 7 days, CellTiter-Glo, top dose 10, 3-fold dilution, 9 doses. Put shortly:
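NCI-H226 cells were seeded at 500 cells/well overnight, then treated with compounds in a 9-point, 3-fold dilution from a top dose of 10 μM, with 0.2% DMSO. Plates were incubated 7 days at 37° C, 5% CO2. Viability was read by CellTiter-Glo luminescence, normalized to DMSO (max) and medium-only (min) controls.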

Data set [4] is described as follows: Pharmacokinetic studies in mice. In kind it is in vivo, mouse. As to conditions: for Vd / clearance / half-life: mouse plasma; for Vd / clearance: intravenous 2 mg/kg in 75% PEG 300+25% D5W; for half-life: intravenous 2 mg/kg, oral 10 mg/kg in 75% PEG 300+25% D5W; for bioavailability: plasma, mouse, oral 10 mg/kg vs intravenous 2 mg/kg in 75% PEG 300+25% D5W. The method, then:
Pharmacokinetic Studies in mice: The plasma pharmacokinetic profiles of representative compounds were evaluated in mouse via intravenous (2 mg/kg in 75% PEG 300+25% D5W solution) and oral (10 mg/kg in 75% PEG 300+25% D5W solution) dosing routes.

In the case of `C=CC(=O)N1CCN(c2nccnc2Nc2ccc(OC(F)(F)F)cc2)CC1` [Example 34, 1-(4-(3-((4-(trifluoromethoxy)phenyl)amino)pyrazin-2-yl)piperazin-1-yl)prop-2-en-1-one], the pIC50 is below 5.00 in the data set on IMR32 cells and 8.70 in data set [2]. Besides, the IC50 in the data set with NCI-H226 cells [1] came out at 0.007 µM; in the data set on NCI-H226 cells [3], 0.006 µM.
Take `C=CC(=O)N1CCC(c2nccnc2Nc2ccc(C(F)(F)F)cc2)CC1` [Example 26, 1-[4-(3-{[4-(trifluoromethyl)phenyl]amino}pyrazin-2-yl)piperidin-1-yl]prop-2-en-1-one]: the values for the pIC50 (in the data set with IMR32 cells; in data set [2]) were 5.00 and 8.70, respectively. In addition, the values for the IC50 in the data set on NCI-H226 cells [1] and in the data set on NCI-H226 cells [3] were 0.009 µM and 0.02 µM, respectively.
The molecule `C=CC(=O)N1CCC(c2nccnc2Oc2ccc(C(F)(F)F)nc2)CC1` [Example 79, 1-(4-(3-((6-(trifluoromethyl)pyridin-3-yl)oxy)pyrazin-2-yl)piperidin-1-yl)prop-2-en-1-one] returned an IC50 in the data set with NCI-H226 cells [1] of 0.017 µM. The pIC50 in data set [2] is 8.70. Moreover, in the data set with NCI-H226 cells [3], the IC50 is 0.028 µM. In addition, in data set [4], the Vd worked out at 1.73 L/kg, the clearance worked out at 47.3 mL/min/kg, the half-life is 24 min and the bioavailability amounted to 109%.
Consider `C=CC(=O)N1CCN(c2nccnc2Oc2ccc(C(F)(F)F)cn2)CC1` [Example 73, 1-(4-(3-((5-(trifluoromethyl)pyridin-2-yl)oxy)pyrazin-2-yl)piperazin-1-yl)prop-2-en-1-one], for which the pIC50 was below 4.70 in the data set with IMR32 cells and 8.52 in data set [2]. The IC50 amounted to 0.025 µM with NCI-H226 cells [1] and 0.032 µM in the data set on NCI-H226 cells [3].
Regarding `C=CC(=O)N1CCN(c2nccnc2Nc2ccc(S(F)(F)(F)(F)F)cc2)CC1` [Example 31, 1-(4-(3-((4-(pentafluoro-16-sulfaneyl)phenyl)amino)pyrazin-2-yl)piperazin-1-yl)prop-2-en-1-one], the figures for the pIC50 (in the data set on IMR32 cells; in data set [2]) were below 5.30 and 8.69, respectively. Also, the IC50 came to 0.0155 µM in the data set on NCI-H226 cells [1] and 0.018 µM in the data set on NCI-H226 cells [3].
In turn, `C=CC(=O)N1CCN(c2nccnc2Nc2ccc(C(F)(F)F)cc2)CC1` [Compound 1, 1-(4-(3-((4-(trifluoromethyl)phenyl)amino)pyrazin-2-yl)piperazin-1-yl)prop-2-en-1-one] gave a pIC50 in the data set with IMR32 cells below 5.00. Moreover, the IC50 in the data set with NCI-H226 cells [1] stood at 0.0166 µM. Besides, in data set [2], the pIC50 was 8.74. The same molecule came in with an IC50 with NCI-H226 cells [3] of 0.0143 µM. In data set [4], the Vd was 7 L/kg, the clearance was 42.2 mL/min/kg, the half-life was 126 min and the bioavailability is 94.4%.
The molecule `C=CC(=O)N1CCN(c2nccnc2Nc2ccc(C(F)(F)F)cn2)CC1` [Example 39, 1-(4-(3-((5-(trifluoromethyl)pyridin-2-yl)amino)pyrazin-2-yl)piperazin-1-yl)prop-2-en-1-one] showed a pIC50 in the data set on IMR32 cells below 4.70. The IC50 in the data set on NCI-H226 cells [1] is 0.016 µM. The molecule further gave a pIC50 in data set [2] of 8.30. For the same molecule, in the data set on NCI-H226 cells [3], half-maximal inhibition (IC50) was put at 0.015 µM. In data set [4], the Vd turned out to be 1.8 L/kg, the clearance was 39.5 mL/min/kg, the half-life was 30 min and the bioavailability came out at 90%.
Regarding `C=CC(=O)N1CCN(c2nc(C)cnc2Nc2ccc(C(F)(F)F)cc2)CC1` [Example 112, 1-(4-(6-methyl-3-((4-(trifluoromethyl)phenyl)amino)pyrazin-2-yl)piperazin-1-yl)prop-2-en-1-one], the pIC50 in the data set on IMR32 cells is 5.00; in data set [2], 8.74. For the same molecule, the IC50 with NCI-H226 cells [1] was 0.011 µM; with NCI-H226 cells [3], 0.009 µM.
As to `C=CC(=O)N1CC=C(c2nccnc2Nc2ccc(C(F)(F)F)cc2)CC1` [Example 25, 1-[4-(3-{[4-(trifluoromethyl)phenyl]amino}pyrazin-2-yl)-3,6-dihydro-2H-pyridin-1-yl]prop-2-en-1-one], the pIC50 in the data set with IMR32 cells was 4.81; in data set [2] it was 8.68. This molecule had an IC50 in the data set on NCI-H226 cells [1] of 0.006 µM.
For `C=CC(=O)N1CCN(c2nccnc2Nc2ccc(Cl)cc2)CC1` [Example 32, 1-(4-(3-((4-chlorophenyl)amino)pyrazin-2-yl)piperazin-1-yl)prop-2-en-1-one], in that order: 4.70, 8.33 and 0.059 µM.
With `C=CC(=O)N1CCCN(c2nccnc2Nc2ccc(C(F)(F)F)cc2)CC1` [Example 27, 1-(4-(3-((4-(trifluoromethyl)phenyl)amino)pyrazin-2-yl)-1,4-diazepan-1-yl)prop-2-en-1-one], the pIC50 was 5.00 with IMR32 cells and 7.53 in data set [2]. The same molecule showed an IC50 in the data set with NCI-H226 cells [1] of 0.164 µM.
Take `CC(C)(C#N)N1CCN(c2nccnc2Nc2ccc(C(F)(F)F)cc2)CC1` [Example 176, 2-methyl-2-(4-(3-((4-(trifluoromethyl)phenyl)amino)pyrazin-2-yl)piperazin-1-yl)propanenitrile]: the values for the pIC50 (in the data set on IMR32 cells; in data set [2]) were below 5.00 and 5.60, respectively. The same molecule yielded an IC50 with NCI-H226 cells [1] of 9.95 µM.
With `C=CC(=O)N1CC2CC1CN2c1nccnc1Nc1ccc(C(F)(F)F)cc1` (stereo not shown) [Example 11, 1-(5-(3-((4-(trifluoromethyl)phenyl)amino)pyrazin-2-yl)-2,5-diazabicyclo[2.2.1]heptan-2-yl)prop-2-en-1-one], the pIC50 in the data set on IMR32 cells was 5.85; in data set [2] it was 7.36. The same molecule gave an IC50 with NCI-H226 cells [1] of 0.483 µM.

By pIC50 is commonly meant the IC50 on a negative log10 scale, so that one unit is a factor of ten. A higher pIC50 goes with a low IC50. The IC50 is the concentration needed to halve the response being measured. A higher IC50 goes with weaker potency in that assay. A word on the Vd: it is a proportionality between amount in the body and measured concentration, not a real space. A high value points to wide distribution into tissue. In general, clearance refers to a measure of how efficiently the substance is removed, as volume per time. High values mean a high capacity for elimination, low ones a low capacity for elimination. In general, half-life refers to the time needed for the level to fall by half in the phase considered. A high value points to slow decline.

The values are drawn from US20250206722A1, “SMALL MOLECULE INHIBITORS OF TEA DOMAIN FAMILY MEMBERS” (The Scripps Research Institute, priority 2022, published 2025).
